Data set [1] relates to phenylquinone induced writhings. Kind of data set: animal or person. The conditions noted are these: for ED50: Mus musculus; for sc/I. Vent.: ratio of ED50 sc/intraventricular. On the procedure:
In vivo testing was conducted on many of the compounds of the present invention.

Data set [2] relates to Rat Writhing. Kind of data set: Rat Writhing (analgetic activity). The class given is in vivo. The conditions noted are these: Table 2; for ED50: Rattus norvegicus; for Rat Writhing po/sc: ratio of ED50 po/sc.
For data set [3], the system named is Rat Vocalization. Nature of the data set: Rat Vocalization (analgetic activity). The class given is in vivo. The note with it: Table 2; for ED50: Rattus norvegicus; for Rat Vocalization po/sc: ratio of ED50 po/sc.
Data set [4] deals with Cough Response. Nature of the data set: animal or person. In kind it is in vivo, dog. The conditions noted are these: for Percent Inhibition of Cough Response: 0.1 mg/kg sc; for ED50: Canis lupus familiaris, unanesthetized dog. An excerpt: Comparative Antitussive Effects of (-)-XI, Butorphanol and
Morphine Sulfate in the Unanesthetized Dog

The test system of data set [5] is Straub Tail induced by oxymorphone. Nature of the data set: Antagonism of oxymorphone-induced Straub Tail (antagonist activity). The class given is in vivo, mouse. The note with it: for ED50: Mus musculus; for Oxymorphone-Induced Straub Tail po/sc: ratio of ED50 po/sc. On the procedure: ^2 Antagonism of Straub Tail induced by oxymorphone (2 mg/kg, s.c.) i
Data set [6] relates to Morphine Antagonism Rat Tail Flick. Kind of data set: Morphine antagonism, Rat Tail Flick (antagonist activity). The class given is in vivo. The note with it: Table 3; for ED50: Rattus norvegicus; for Morphine Antagonism Rat Tail Flick po/sc: ratio of ED50 po/sc.
In data set [7] the test system is withdrawal jumping (abstinence). Kind of data set: Primary physical dependence test in mice (withdrawal jumping on naloxone challenge). The note with it: repeated sc injections for two days. On the procedure:
(§1) Buprenorphine and (-)XI were tested for physical dependence liability in mice. […] The compounds were then tested as substitutes for morphine in withdrawn morphine-dependent mice.

Data set [8] concerns withdrawn morphine-dependent mice. Nature of the data set: Substitution for morphine in withdrawn morphine-dependent mice. The conditions noted are these: 1 mg/kg sc, or less. On the procedure:
as §1

Data set [9] in a line: Physical dependence liability in man (predicted from mouse models). The conditions noted are these: prediction from the mouse test model. On the procedure: as §1
The mark [10] stands for this setting: central, read-out: Analgetic activity ED50, Intraventricular.
[11] abbreviates: po, read-out: Analgetic activity ED50, Mouse Writhing po.
[12] abbreviates: sc, read-out: Analgetic activity ED50, Mouse Writhing sc.
[13] abbreviates: po, read-out: Analgetic activity ED50, Rat Writhing po.
The mark [14] stands for this setting: sc, read-out: Analgetic activity ED50, Rat Writhing sc.
Setting [15] is: po, read-out: Analgetic activity ED50, Rat Vocalization po.
The mark [16] stands for this setting: sc, read-out: Analgetic activity ED50, Rat Vocalization sc.
[17] abbreviates: po, Table 3, read-out: Antagonist activity ED50, Oxymorphone-Induced Straub Tail po.
[18] abbreviates: sc, Table 3, read-out: Antagonist activity ED50, Oxymorphone-Induced Straub Tail sc.
The mark [19] stands for this setting: po, read-out: Antagonist activity ED50, Morphine Antagonism Rat Tail Flick po.
Setting [20] is: sc, read-out: Antagonist activity ED50, Morphine Antagonism Rat Tail Flick sc.
[21] abbreviates: sc, read-out: Agonist Activity, Phenylquinone Writhing ED50.
[22] abbreviates: sc, mice, Table 1, oxymorphone 2 mg/kg, s.c., read-out: Antagonist Activity, Oxymorphone Straub Tail ED50.

Read-outs that look alike come from different tables or passages of the source.

The ED50 is the dose at which the effect has come halfway, by size or by number of responders. In the case of `CN1CC[C@]23c4c5ccc(O)c4O[C@H]2[C@@H](O)C=C[C@H]3[C@H]1C5` [Morphine SO4], the ED50 in data set [1] (setting [10]) came to 0.0032 mg/kg; in [1] (setting [11]), 3.1 mg/kg; in [1] (setting [12]), 0.26 mg/kg; in data set [2] (setting [13]), 1.6 mg/kg; in data set [2] (setting [14]), 0.16 mg/kg; in data set [3] (setting [15]), 2.1 mg/kg. Moreover, the ED50 in data set [3] (setting [16]) was found to be 0.19 mg/kg. For the same compound, in data set [1] (mouse, in vivo), the “Mouse Writhing po/sc” value came to 12. Besides, the “Rat Writhing po/sc” value in [2] was found to be 10. For the same compound, in data set [3], the “Rat Vocalization po/sc” value came to 11. In data set [4] (dog, in vivo, po), the “Oral antitussive ED50” value turned out to be 0.62 mg/kg. Besides, the “Antitussive ED50” value in data set [4] (dog, in vivo, sc) stood at 0.04 mg/kg.
For `C=CCN1CC[C@]23c4c5ccc(O)c4O[C@H]2C(=O)CC[C@@]3(O)[C@H]1C5` [Naloxone, reference compound], the median effective dose (ED50) in data set [5] (setting [17]) was 13 mg/kg; in data set [5] (setting [18]) it was 0.09 mg/kg; in data set [6] (setting [19]), 2.7 mg/kg; in data set [6] (setting [20]), 0.01 mg/kg. The “Oxymorphone-Induced Straub Tail po/sc” value in data set [5] (Table 3) is given as 144. In addition, the “Morphine Antagonism Rat Tail Flick po/sc” value in data set [6] stood at 270.
In the case of `COc1ccc2c(c1)[C@]13CCN(CC4CC4)[C@H](C2)[C@@H]1CCOC3` (racemic) [(±)-X, 17-Cyclopropylmethyl-3-methoxy-6-oxamorphinan], the ED50 turned out to be 0.38 mg/kg in data set [1] (setting [21]) and 10 mg/kg in [5] (setting [22]).
For `COc1ccc2c(c1)[C@]13CCN[C@H](C2)[C@@H]1CCOC3` (racemic) [(±)-VIII, 3-methoxy-6-oxamorphinan], in that order: roughly 40 mg/kg and greater than 40 mg/kg.
For `COc1ccc2c(c1)[C@]13CCN(CC4CC4)[C@H](C2)[C@@H]1CCOC3` [(-)-X, (-)-17-Cyclopropylmethyl-3-methoxy-6-oxamorphinan], in that order: 0.14 mg/kg and roughly 6 mg/kg.
Taken in the same sequence, the figures for `Oc1ccc2c(c1)[C@]13CCN(CC4CC4)[C@H](C2)[C@@H]1CCOC3` (racemic) [(±)-XI, 17-Cyclopropylmethyl-3-hydroxy-6-oxamorphinan] were 0.037 mg/kg and 0.76 mg/kg.
Take `COc1ccc2c(c1)[C@]13CCN(C)[C@H](C2)[C@@H]1CCOC3` (racemic) [(±)-V, 3-Methoxy-17-methyl-6-oxamorphinan]: the median effective dose (ED50) is 1.32 mg/kg in [1] (setting [21]) and greater than 20 mg/kg in data set [5] (setting [22]).
Consider `CN1CCC23COCCC2C1Cc1ccc(O)cc13` (racemic) [(±)-VI], for which the values for the ED50 in [1] (setting [21]) and in data set [5] (setting [22]) were 0.34 mg/kg and greater than 40 mg/kg, respectively.
As for `Oc1ccc2c(c1)[C@@]13CCCC[C@@]1(O)[C@@H](C2)N(CC1CCC1)CC3` [Butorphanol], the ED50 amounted to 0.0019 mg/kg in data set [1] (setting [10]); 5.1 mg/kg in data set [1] (setting [11]); 0.045 mg/kg in data set [1] (setting [12]); 55 mg/kg in data set [5] (setting [17]); 0.98 mg/kg in data set [5] (setting [18]); 2.1 mg/kg in data set [2] (setting [13]). Besides, the ED50 in data set [2] (setting [14]) was found to be 0.04 mg/kg; in data set [3] (setting [15]), 0.83 mg/kg; in data set [3] (setting [16]), 0.012 mg/kg; in data set [6] (setting [19]) it was 22 mg/kg; in data set [6] (setting [20]), 0.43 mg/kg; in [4] (po, read-out: Oral antitussive ED50) it was 0.32 mg/kg. In addition, the 50% effective dose (ED50) in data set [4] (sc, read-out: Antitussive ED50) came out at 0.01 mg/kg. In addition, in data set [1] (mouse, in vivo), the Blood-brain barrier penetration result was “penetrate the blood-brain barrier more readily than either morphine or buprenorphine and to about the same degree as each other”. Also, the “Mouse Writhing po/sc” value in data set [1] (ratio of ED50 po/sc, Table 2) was 113. Also, in data set [1] (Table 2), the “sc/I. Vent.” value was 24. Moreover, the “Oxymorphone-Induced Straub Tail po/sc” value in data set [5] (Table 3) worked out at 56. In addition, the “Rat Writhing po/sc” value in data set [2] was found to be 53. For the same compound, the “Rat Vocalization po/sc” value in data set [3] was 69. Besides, the “Morphine Antagonism Rat Tail Flick po/sc” value in [6] is 51. In addition, the “Percent Inhibition of Cough Response” value in data set [4] (15 min) is reported as 98%; in data set [4] (30 min) it was 96%; in data set [4] (60 min) it was 92%; in [4] (120 min), 84%; in data set [4] (180 min), 64%; in data set [4] (240 min) it was 41%. Further, the “Percent Inhibition of Cough Response” value in [4] (300 min) is recorded as 28%.
Regarding `CO[C@@]12CC[C@@]3(C[C@@H]1[C@](C)(O)C(C)(C)C)[C@H]1Cc4ccc(O)c5c4[C@@]3(CCN1CC1CC1)[C@H]2O5` [Buprenorphine], the ED50 amounted to 0.0004 mg/kg in [1] (setting [10]); 0.27 mg/kg in data set [1] (setting [11]); 0.021 mg/kg in data set [1] (setting [12]); 0.46 mg/kg in data set [5] (setting [18]); 0.16 mg/kg in data set [2] (setting [13]); 0.013 mg/kg in data set [2] (setting [14]). Moreover, the ED50 in [3] (setting [15]) is roughly 0.08 mg/kg; in data set [3] (setting [16]), 0.005 mg/kg; in data set [6] (setting [19]), 0.92 mg/kg; in data set [6] (setting [20]) it was 0.063 mg/kg. Besides, in data set [1] (ratio of ED50 po/sc, Table 2), the “Mouse Writhing po/sc” value came out at 13. Also, the “sc/I. Vent.” value in [1] (Table 2) is 53. Moreover, in [2], the “Rat Writhing po/sc” value was 12. Besides, in data set [3], the “Rat Vocalization po/sc” value is reported as ~ 16. The “Morphine Antagonism Rat Tail Flick po/sc” value in [6] is 15. Further, the “Withdrawal jumping (primary physical dependence)” value in [7] is given as “did not exhibit withdrawal jumping (abstinence)”. Further, the Substitution for morphine result in data set [8] is “complete substitution for morphine”. Moreover, the “Predicted physical dependence liability in man” value in data set [9] was “morphine-like”.
For the compound `COc1ccc2c(c1)[C@]13CCN(CC4CCC4)[C@H](C2)[C@@H]1CCOC3` (racemic) [(±)-XIII, 17-Cyclobutylmethyl-3-methoxy-6-oxamorphinan], the results for the 50% effective dose (ED50) in [1] (setting [21]) and in data set [5] (setting [22]) were 0.38 mg/kg and roughly 15 mg/kg, respectively.
Turning to `Oc1ccc2c(c1)[C@]13CCN(CC4CCC4)[C@H](C2)[C@@H]1CCOC3` (racemic) [(±)-XIV, 17-Cyclobutylmethyl-3-hydroxy-6-oxamorphinan], the ED50 is 0.015 mg/kg in data set [1] (setting [21]) and roughly 6 mg/kg in [5] (setting [22]).

The record behind these values is patent publication US4154932A (priority 1977, dated 1979).
